Source: PMC9603010 (ACS Bio & Med Chem Au, 2022)

What was measured:
[1] = target: 3CL^pro M165A (Severe acute respiratory syndrome coronavirus 2, UniProt P0DTD1, M3428A); assay type: cell-based, SARS-CoV-2
[2] = target: 3CL^pro Q299A (Severe acute respiratory syndrome coronavirus 2, UniProt P0DTD1, Q3562A); assay type: cell-based, SARS-CoV-2

Compound: C=C1C(=O)O[C@H]2[C@H]1CC/C(C)=C/CC[C@@]1(C)O[C@@H]21 [parthenolide]
- inhibition in M165A compared to WT [1]: reduced
- inhibition in Q299A compared to WT [2]: reduced
